Data on three molecules can be found in patent publication US8324173B2, “Peptides useful as dual caspase-2/-6 inhibitors and their biological applications” (Chiesi Farmaceutici S.p.A., priority 2004, dated 2012).

By IC50 is commonly meant the concentration at which inhibition is half-maximal.

Peptide text beside a SMILES is read from it.

Common to all, as to type: biochemical
Experiment [1] addresses T1, Human recombinant calpain I (Homo sapiens, UniProt P07384).
T1 construct: purchased Biomol
T1 sequence (P07384 1-714): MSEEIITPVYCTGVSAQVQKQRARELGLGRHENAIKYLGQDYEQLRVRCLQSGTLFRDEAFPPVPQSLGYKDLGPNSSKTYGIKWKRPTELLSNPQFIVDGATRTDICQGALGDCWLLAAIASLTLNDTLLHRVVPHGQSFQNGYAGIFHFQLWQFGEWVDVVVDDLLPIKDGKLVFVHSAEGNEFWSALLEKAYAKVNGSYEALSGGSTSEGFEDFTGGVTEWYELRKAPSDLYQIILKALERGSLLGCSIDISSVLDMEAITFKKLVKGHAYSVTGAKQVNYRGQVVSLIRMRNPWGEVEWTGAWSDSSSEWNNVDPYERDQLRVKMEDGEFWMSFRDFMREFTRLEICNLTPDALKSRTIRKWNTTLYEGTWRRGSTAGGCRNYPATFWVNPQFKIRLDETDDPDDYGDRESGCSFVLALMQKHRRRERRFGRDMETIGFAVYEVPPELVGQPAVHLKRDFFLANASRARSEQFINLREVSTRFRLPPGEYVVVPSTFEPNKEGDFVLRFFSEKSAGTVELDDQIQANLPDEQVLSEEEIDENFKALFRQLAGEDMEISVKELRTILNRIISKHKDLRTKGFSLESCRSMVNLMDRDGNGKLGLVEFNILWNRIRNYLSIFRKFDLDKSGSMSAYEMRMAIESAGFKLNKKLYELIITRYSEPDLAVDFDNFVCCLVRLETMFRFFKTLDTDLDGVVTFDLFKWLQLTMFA
T1 sequence (P04632 1-268 partner): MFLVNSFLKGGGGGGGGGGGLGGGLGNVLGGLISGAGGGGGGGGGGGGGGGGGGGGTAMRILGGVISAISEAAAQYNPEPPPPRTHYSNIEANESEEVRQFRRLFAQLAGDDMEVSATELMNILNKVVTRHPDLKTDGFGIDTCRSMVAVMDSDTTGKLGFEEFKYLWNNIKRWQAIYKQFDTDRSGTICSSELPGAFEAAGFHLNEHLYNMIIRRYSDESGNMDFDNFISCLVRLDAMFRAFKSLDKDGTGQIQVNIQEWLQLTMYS
The experiment in a line: Calpain I inhibition assay. The settings on record: 2 μM. The method, then:
(§1) Additionally, specificity of newly designed inhibitors was checked against calpains and Granzyme B. Human recombinant calpain I (0.8 U) and rat recombinant calpain II (20 U) (both from Biomol) were pre-incubated 30 min with inhibitors in final 100 μl final assay buffer (50 mM HEPES, pH 7.4, 100 mM NaCl, 0.1% CHAPS, 5 mM CaCl2, 1 mM EDTA, 10% glycerol, 2 mM β-mercaptoethanol) and then mixed with 20 μM of the fluorogenic calpain substrates I or II (Calbiochem), respectively. ALLN and ALLM (1 μM) were internal controls for inhibition. The cleavage of substrates by recombinant enzymes was measured after 2 h at 37° C. on a fluorescence microplate reader by monitoring emission at 460 nm upon excitation at 380 nm for calpain I or emmission at 530 nm upon excitation at 485 nm for calpain II. Human granzyme B (50 U; Biomol) was pre-incubated 10 min with inhibitors in final 100 μl final granzyme assay buffer (Biomol) and then mixed with 400 μM of Ac-IEPD-pNA (Biomol). 3,4 DCIC (1 μM) was used as positive control for inhibition. The cleavage of substrate was measured after 1 h at 37° C. on a spectrophotometer at […]. Ac-IEPD-pNA is DEQ ID NO:29.

The next experiment deals with T2, Human granzyme B (Homo sapiens, UniProt P10144).
T2 construct: purchased Biomol
Description: Granzyme B inhibition assay (Ac-IEPD-pNA). The conditions noted are these: 2 μM. The method, then: as §1

Experiment [2] deals with T3, rat recombinant calpain II (Rattus norvegicus, UniProt Q07009).
T3 construct: purchased Biomol
T3 sequence (Q07009 1-700): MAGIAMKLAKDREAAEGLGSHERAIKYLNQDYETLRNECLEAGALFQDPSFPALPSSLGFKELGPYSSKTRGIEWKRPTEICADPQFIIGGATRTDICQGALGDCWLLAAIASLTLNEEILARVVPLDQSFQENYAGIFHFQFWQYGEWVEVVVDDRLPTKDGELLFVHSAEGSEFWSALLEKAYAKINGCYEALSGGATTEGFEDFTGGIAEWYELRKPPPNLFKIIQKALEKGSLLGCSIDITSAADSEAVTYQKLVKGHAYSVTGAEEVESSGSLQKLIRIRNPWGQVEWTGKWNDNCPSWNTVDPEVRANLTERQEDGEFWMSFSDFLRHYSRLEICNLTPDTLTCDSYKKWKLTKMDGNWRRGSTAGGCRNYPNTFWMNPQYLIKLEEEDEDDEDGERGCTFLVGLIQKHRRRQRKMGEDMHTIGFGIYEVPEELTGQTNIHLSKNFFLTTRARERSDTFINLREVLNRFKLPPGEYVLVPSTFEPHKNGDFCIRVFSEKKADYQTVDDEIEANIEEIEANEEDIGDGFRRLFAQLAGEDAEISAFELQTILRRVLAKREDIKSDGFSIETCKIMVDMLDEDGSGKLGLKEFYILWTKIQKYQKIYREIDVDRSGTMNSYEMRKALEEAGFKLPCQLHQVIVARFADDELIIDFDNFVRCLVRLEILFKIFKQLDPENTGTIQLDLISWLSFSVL
T3 sequence (Q64537 87-270 partner limits assumed): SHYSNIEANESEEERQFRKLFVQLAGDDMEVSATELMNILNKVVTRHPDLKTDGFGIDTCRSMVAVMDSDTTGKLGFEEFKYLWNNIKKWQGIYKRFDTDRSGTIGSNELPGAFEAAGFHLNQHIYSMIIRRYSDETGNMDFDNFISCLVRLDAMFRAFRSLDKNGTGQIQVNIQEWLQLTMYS
The experiment in a line: Calpain II inhibition assay. The conditions noted are these: 2 μM. The method, then: as §1

The target in experiment [3] is T4, human recombinant caspase-2 (Homo sapiens, UniProt P42575).
T4 construct: purchased BIOMOL
T4 sequence (P42575 170-333 limits assumed): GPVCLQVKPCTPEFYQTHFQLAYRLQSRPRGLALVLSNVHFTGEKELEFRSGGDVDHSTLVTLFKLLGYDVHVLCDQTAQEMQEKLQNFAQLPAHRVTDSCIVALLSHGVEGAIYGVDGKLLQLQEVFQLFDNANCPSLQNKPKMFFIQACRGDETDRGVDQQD
T4 sequence (P42575 348-452 limits assumed): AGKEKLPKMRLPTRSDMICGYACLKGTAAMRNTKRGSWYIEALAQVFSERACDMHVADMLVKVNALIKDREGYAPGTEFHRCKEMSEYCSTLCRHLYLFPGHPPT
Description: In vitro caspase-2 cleavage assay (Ac-VDVAD-AMC substrate). More on the design: key to Group (pattern of caspase-2 inhibition curve): group 1 referred to inhibitors that were relatively more active than VDVAD(SEQ ID NO:9)-based inhibitors against caspase-2 at lower doses, but with similar IC50 values; group 2 referred to VDVAD(SEQ ID NO:9)-based inhibitor with characteristic sigmoid dose-response; group 3 referred to pentapetidic-based inhibitors that were less active than VDVAD(SEQ ID NO:9)-based inhibitors against caspase-2 at lower doses and that exhibited higher IC50. The conditions noted are these: for Group (pattern of caspase-2 inhibition curve) / IC50: Table 4; for IC50: 30 min pre-incubation, 2 h at 37° C. The method, then:
Newly designed inhibitors (Ac-LDEAD(SEQ ID NO:7)-CHO, Ac-VDEAD(SEQ ID NO:1)-CHO . . . ) were compared to Ac-VDVAD(SEQ ID NO:9)-CHO in in vitro caspase-2 cleavage assay according to the following protocol (FIG. 8). Human recombinant caspases (25-50 U; QuantiZyme™ Assay System, BIOMOL, Plymouth, Pa., USA) were pre-incubated 30 min with inhibitors (0.005-2 μM) in final 100 μl final assay buffer (50 mM HEPES, pH 7.4, 100 mM NaCl, 0.1% CHAPS, 10 mM DTT, 1 mM EDTA, 10% glycerol) and then mixed with 200 μM of the fluorogenic caspase substrates (BIOMOL) Ac-VDVAD(SEQ ID NO:9)-AMC. An IC50 value corresponding to the concentration that could inhibit 50% of caspase activity was determined from the dose-response sigmoid curve. The cleavage of AMC-based substrates by human recombinant caspases 1-10 was measured after 2 h at 37° C. on a fluorescence microplate reader by monitoring emission at 510 nm upon excitation at 405 nm.

The test system of another experiment is other caspases. The experiment in a line: In vitro cleavage assay on panel of human recombinant caspases (cross-reaction). The settings on record: at high doses. The method, then: Newly designed inhibitors (Ac-LDEAD(SEQ ID NO:7)-CHO, Ac-VDEAD(SEQ ID NO:1)-CHO) . . . ) were tested against a large panel of caspase (1 to 10) during in vitro cleavage assay according to the following protocol. Human recombinant caspases (25-50 U; Biomol) were pre-incubated 30 min with inhibitors (0.005-2 μM) in final 100 μl final assay buffer (50 mM HEPES, pH 7.4, 100 mM NaCl, 0.1% CHAPS, 10 mM DTT, 1 mM EDTA, 10% glycerol) and then mixed with 200 μM of their specific fluorogenic caspase substrates (BIOMOL) (Ac-YVAD(SEQ ID NO:23)-AMC (caspase-1), Ac-VDVAD(SEQ ID NO:9)-AMC (caspase-2), Ac-DEVD(SEQ ID NO:24)-AMC (caspase-3/-7), Ac-VEID(SEQ ID NO:25)-AMC (caspase-6), Ac-IETD(SEQ ID NO:26)-AMC (caspase-81-10)1Ac-LEHD(SEQ ID NO:27)-AMC (caspase-9). The cleavage of AMC-based substrates by human recombinant caspases 1-10 was measured after 2 h at 37° C. on a fluorescence microplate reader by monitoring emission at 510 nm upon excitation at 405 nm.

T2 sequence (P10144 21-247): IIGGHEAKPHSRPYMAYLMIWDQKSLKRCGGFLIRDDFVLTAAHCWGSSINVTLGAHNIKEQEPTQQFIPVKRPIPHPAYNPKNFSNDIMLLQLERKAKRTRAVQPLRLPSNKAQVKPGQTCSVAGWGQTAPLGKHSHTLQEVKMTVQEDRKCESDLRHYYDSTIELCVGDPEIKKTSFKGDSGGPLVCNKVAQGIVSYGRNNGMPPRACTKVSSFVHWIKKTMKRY

Regarding `CC(=O)N[C@H](C(=O)N[C@@H](CC(=O)O)C(=O)N[C@@H](CCC(=O)O)C(=O)N[C@@H](C)C(=O)N[C@H](C=O)CC(=O)O)C(C)C` [Compound 20, Ac-VDEAD(SEQ ID NO:1)-cho] (Ac-VDEAD-aldehyde), the “inhibition of calpain I” value in experiment [1] was “not strong inhibitors”. In addition, the “inhibition of granzyme B” value against Human granzyme B is “not strong inhibitors”. Also, in experiment [2], the “inhibition of calpain II” value is “not strong inhibitors”. In experiment [3], the “Group (pattern of caspase-2 inhibition curve)” value is given as 1 and the IC50 is 85 ± 5 nM.

In the case of `CC(=O)N[C@@H](CC(C)C)C(=O)N[C@@H](CC(=O)O)C(=O)N[C@@H](CCC(=O)O)C(=O)N[C@@H](C)C(=O)N[C@H](C=O)CC(=O)O` [Compound 14, Ac-LDEAD(SEQ ID NO:7)-cho] (Ac-LDEAD-aldehyde), the “inhibition of calpain I” value in experiment [1] is on record as “not strong inhibitors”. For the same molecule, the “inhibition of granzyme B” value on Human granzyme B is “not strong inhibitors”. Besides, the “inhibition of calpain II” value in experiment [2] was “not strong inhibitors”. For the same molecule, in experiment [3], the “Group (pattern of caspase-2 inhibition curve)” value amounted to 1 and the concentration for half-maximal inhibition (IC50) is 85 ± 6 nM.

As to `CC(=O)N[C@H](C(=O)N[C@@H](CC(=O)O)C(=O)N[C@H](C(=O)N[C@@H](C)C(=O)N[C@H](C=O)CC(=O)O)C(C)C)C(C)C` [Compound 8, Ac-VDVAD-cho, reference compound] (Ac-VDVAD-aldehyde), the “inhibition of other caspases (cross-reaction)” value in the experiment with other caspases is “less than 20%”. For the same molecule, in experiment [3], the “Group (pattern of caspase-2 inhibition curve)” value is 2. In experiment [3] (recombinant caspase-2, FIG. 16), the “VDVAD-AMC cleavage by caspase-2” value is listed as “blocked”.
